For the assay, the target named is T1, (Homo sapiens, UniProt Q96P20).
T1 construct: IL-1β ELISA of supernatant
As to the kind of experiment: IL-1β secretion assay in THP-1 cells (PMA differentiated, LPS and nigericin stimulated; ELISA). In kind it is cell-based. The procedure:
Biochemical Assay of the Compounds
Procedure for Culturing THP-1 Cells
Compounds as provided herein were tested in the following assay. Cell culture medium employed contained RPMI 1640 medium (89%), FBS (10%), Pen/Strep (1%), and 2-mercaptoethanol (0.05 mM). Freezing medium was made up of 90% FBS and 10% DMSO. THP-1 cells were removed from the liquid nitrogen and placed into a 37 °C water bath to thaw, until signs of ice dissipated. The cells were then added to 9 mL of warm cell culture medium and centrifuged for 5 minutes at 1000 rpm. The supernatant was discarded, and the cells were resuspended in new cell culture medium. THP-1 cells were then split and cultured in the cell culture medium, being passaged every 2-3 days with the cell density will be maintained between 5×10^5 and 1.5×10^6 viable cells/mL.
To freeze, cells were resuspended with fresh freezing medium, adjusting the cell density to 5×10^6 cells/mL. The cell suspension was partitioned into 1 mL aliquots per vial, and the vials were transferred to a −80 °C freezer. After one day at −80 °C, the cell vials were transferred to liquid nitrogen freezer for storage.
Procedure for IL-Iβ Secretion Assay in 384-Well Plates
PMA was dissolved in DMSO to make a stock solution at 5 mg/ml and stored in 10 μl aliquots at −20 °C for single use. PMA is added to normal growth medium. LPS was diluted with 1 mL of water solution to provide a 1 mg/mL stock solution and stored in 15 μL aliquots at −20 °C for single use. Nigericin is diluted in ice cold 100% ethanol to 5 mg/ml (6.7 mM) and stored in 75 μL aliquots at −20 °C for single use. Serum-free media contains RPMI 1640 medium (99%), Pen/Strep (1%), and 2-mercaptoethanol (0.05 mM). The two control conditions used to qualify and normalize test compound dose-response curves were as follows: High Control=25 ng/mL LPS, 5 μM Nigericin, 0.5% DMSO, Low Control=25 ng/ml, LPS, 0.5% DMSO.
Day 1: Differentiation with PMA
THP-1 cells were diluted to provide a suspension at a concentration of 1.0×10^6 cells/mL with the total volume of suspension required to enable the desired number of assay plates. The growth media was supplemented with PMA (5 ng/mL final concentration) and the cells were incubated at 37 °C under a humidified atmosphere of 5% CO2 for 40 h.
Day 3: Plating with Sequential LPS and Nigericin Stimulation
All media was carefully aspirated from each culture flask. The cells were washed carefully with 1× DPBS. The cells were then briefly digested with trypsin LE for 5 minutes at 23 °C and immediately resuspended in cell growth media. After resuspension, the cells were centrifuged at 1000 rpm for 3 minutes and the supernatant was discarded. The cells were resuspended in DPBS and once again centrifuged at 1000 rpm for 5 minutes. The supernatant was discarded and the cell pellet was resuspended in serum-free media supplemented with LPS (25 ng/mL final concentration) to enable the distribution of 30K THP-1 cells within 45 μL of media into each well of 384-well PDL-coated plates. The 384-well plates were then incubated at 37 °C under a humidified atmosphere of 5% CO2 for 2 h. Following this period, test compounds were dispensed by Tecan across the desired concentration range with all wells normalized to a final 0.5% DMSO concentration. The plates were then then incubated at 37 °C under a humidified atmosphere of 5% CO2 for 1 h. Following this period, 5 μL of the […] nigericin stock solution was added to each of the appropriate wells and plates were centrifuged at 1000 rpm for 30 seconds. The plates were the immediately reintroduced to the incubator at 37 °C under a humidified atmosphere of 5% CO2 for 2 h. After this time, 35 μL/well of supernatant was collected and transferred into v-bottom plate and centrifuged at 1000 rpm for 1 minute. These supernatant aliquots were analyzed using an IL-Iβ detection kit as described below. If needed, the test samples could be snap frozen and stored at −80 °C until analyzed. […]
(In general: ELISA stands for enzyme-linked immunosorbent assay.)

[1] abbreviates: inhibition of IL-1β secretion, 25 ng/mL LPS, 5 μM Nigericin, 0.5% DMSO, read-out: Activity (IC50).
Setting [2] is: inhibition of IL-1β secretion, 25 ng/mL LPS, 5 μM Nigericin, 0.5% DMSO, read-out: Activity (IC50 class).

Structures are written as SMILES. Where two headings read alike, the source gives them in different places.

T1 sequence (Q96P20 whole entry): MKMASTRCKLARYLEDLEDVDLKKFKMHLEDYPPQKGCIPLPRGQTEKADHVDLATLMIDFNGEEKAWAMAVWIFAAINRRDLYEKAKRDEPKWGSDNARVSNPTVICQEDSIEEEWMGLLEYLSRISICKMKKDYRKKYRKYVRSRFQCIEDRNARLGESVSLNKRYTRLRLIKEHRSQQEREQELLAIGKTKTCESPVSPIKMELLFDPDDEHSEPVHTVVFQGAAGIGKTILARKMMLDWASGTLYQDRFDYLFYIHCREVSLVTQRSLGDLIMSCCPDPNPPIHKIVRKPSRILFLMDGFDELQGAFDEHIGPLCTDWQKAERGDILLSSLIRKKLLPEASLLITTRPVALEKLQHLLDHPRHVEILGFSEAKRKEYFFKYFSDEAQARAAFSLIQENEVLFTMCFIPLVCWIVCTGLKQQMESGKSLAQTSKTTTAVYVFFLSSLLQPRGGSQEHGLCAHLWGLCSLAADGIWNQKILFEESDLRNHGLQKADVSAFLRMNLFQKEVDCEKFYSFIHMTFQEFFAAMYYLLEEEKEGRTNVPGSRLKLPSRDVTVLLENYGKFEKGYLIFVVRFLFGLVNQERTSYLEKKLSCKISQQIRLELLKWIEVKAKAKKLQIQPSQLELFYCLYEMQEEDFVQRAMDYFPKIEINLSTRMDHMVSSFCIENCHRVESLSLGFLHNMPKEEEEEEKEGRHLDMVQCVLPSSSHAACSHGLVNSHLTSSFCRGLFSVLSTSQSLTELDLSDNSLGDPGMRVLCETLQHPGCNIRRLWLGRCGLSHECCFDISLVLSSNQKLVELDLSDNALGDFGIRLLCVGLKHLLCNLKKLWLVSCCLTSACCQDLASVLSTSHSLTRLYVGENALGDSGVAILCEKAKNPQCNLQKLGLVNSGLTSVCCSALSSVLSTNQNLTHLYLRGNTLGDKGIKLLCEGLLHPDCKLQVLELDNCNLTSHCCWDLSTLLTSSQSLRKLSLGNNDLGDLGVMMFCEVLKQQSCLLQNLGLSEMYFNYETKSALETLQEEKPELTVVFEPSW

`O=C(CN1C(=O)c2ccc(Br)cc2[C@]2(C(F)(F)F)C[C@H]12)Nc1ncc(F)cn1` (single isomer, unassigned) [compound 3, 2-[trans-6-bromo-3-oxo-7b-(trifluoromethyl)-1,1a-dihydrocyclopropa[c]isoquinolin-2-yl]-N-(5-fluoropyrimidin-2-yl) acetamide]: the IC50 runs as follows: under setting [1], 9500 nM; under setting [2], 1000 to 10000 nM.
Consider `O=C(CN1C(=O)c2ccc(Br)cc2[C@]2(C(F)(F)F)C[C@H]12)Nc1ncc(F)cn1` (single isomer, unassigned) [compound 2, 2-[trans-6-bromo-3-oxo-7b-(trifluoromethyl)-1,1a-dihydrocyclopropa[c]isoquinolin-2-yl]-N-(5-fluoropyrimidin-2-yl) acetamide], for which the IC50 was 270 nM under setting [1] and less than 1000 nM under setting [2].
Consider `O=C(CN1C(=O)c2ccc(Br)cc2[C@@H]2C[C@@H]21)Nc1ncc(F)cn1` (relative stereo) [compound 5, 2-(cis-6-bromo-3-oxo-1a,7b-dihydro-1H-cyclopropa[c]isoquinolin-2-yl)-N-(5-fluoropyrimidin-2-yl) acetamide], for which the IC50 runs as follows: under setting [1], 800 nM; under setting [2], less than 1000 nM.
Regarding `O=C(CN1C(=O)c2ccc(Br)cc2[C@@H]2CCC[C@@H]21)Nc1ncc(F)cn1` (relative stereo) [compound 1, 2-(cis-8-bromo-5-oxo-2,3,3a,9b-tetrahydro-1H-cyclopenta[c]isoquinolin-4-yl)-N-(5-fluoropyrimidin-2-yl) acetamide], the IC50 (read-out: Activity (IC50), inhibition of IL-1β secretion, 25 ng/mL LPS, 5 μM Nigericin, 0.5% DMSO) came to 700 nM and the IC50 (read-out: Activity (IC50 class), inhibition of IL-1β secretion, 25 ng/mL LPS, 5 μM Nigericin, 0.5% DMSO) is less than 1000 nM.
Take `O=C(CN1C(=O)c2ccc(Br)cc2[C@@H]2CC[C@@H]21)Nc1ncc(F)cn1` (relative stereo) [compound 4, 2-(cis-7-bromo-4-oxo-1,2,2a,8b-tetrahydrocyclobuta[c]isoquinolin-3-yl)-N-(5-fluoropyrimidin-2-yl) acetamide]: the IC50 is, setting by setting: under setting [1], 240 nM; under setting [2], less than 1000 nM.

(Values after US20260374752A1, “COMPOUNDS, COMPOSITIONS, AND METHODS” (Tenvie Therapeutics, Inc., priority 2023, published 2026).)
